Data from the supplement of paper PMC10307832.

How the values were obtained:
Assay in all cases: relative viability (nuclei count vs DMSO), 5 days (fraction); higher = more cells survive
A-427 = test system: A-427
Outline: (§1)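 Medians of duplicate plates are given as relative viability. That measure is the nuclei count in treated wells divided by the count in vehicle wells. Counts were taken on 4× images of lung cancer cell lines in 1536-well plates, 5 days after pin-tool dosing the day after seeding with one drug alone or a fixed anchor-drug dose plus five library-drug doses (not always all listed) in √10 steps.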

COR-L 105 = test system: COR-L 105
Outline: as §1

EKVX = test system: EKVX
Outline: as §1

EMC-BAC-2 = test system: EMC-BAC-2
Outline: as §1

H3255 = test system: H3255
Outline: as §1

HCC-366 = test system: HCC-366
Outline: as §1

LK-2 = test system: LK-2
Outline: as §1

LOU-NH91 = test system: LOU-NH91
Outline: as §1

NCI-H1563 = test system: NCI-H1563
Outline: as §1

NCI-H1666 = test system: NCI-H1666
Outline: as §1

NCI-H1734 = test system: NCI-H1734
Outline: as §1

NCI-H1755 = test system: NCI-H1755
Outline: as §1

NCI-H1975 = test system: NCI-H1975
Outline: as §1

NCI-H23 = test system: NCI-H23
Outline: as §1

NCI-H441 = test system: NCI-H441
Outline: as §1

NCI-H520 = test system: NCI-H520
Outline: as §1

NCI-H596 = test system: NCI-H596
Outline: as §1

PC-3 [JPC-3] = test system: PC-3 [JPC-3]
Outline: as §1

SK-MES-1 = test system: SK-MES-1
Outline: as §1

`Nc1ccn([C@@H]2O[C@H](CO)[C@@H](O)[C@@H]2O)c(=O)n1` [Cytarabine] + C[C@]1(O)C[C@@H](c2nc(-c3ccc4ccc(-c5ccccc5)nc4c3)c3c(N)nccn32)C1 [Linsitinib] (partner 1 µM) gave a relative viability (A-427; first compound 0.005 µM) of 0.909, a relative viability (A-427; first compound 0.01581 µM) of 0.654 and a relative viability (A-427; first compound 0.05 µM) of 0.342. For the same compound, the relative viability (A-427; first compound 0.1581 µM) was 0.181, the relative viability (A-427; first compound 0.5 µM) was 0.196 and the relative viability (COR-L 105; first compound 0.005 µM) was 0.815. For the same compound, the relative viability (COR-L 105; first compound 0.01581 µM) was 1.1, the relative viability (COR-L 105; first compound 0.05 µM) was 0.628 and the relative viability (COR-L 105; first compound 0.1581 µM) was 0.443. The relative viability (COR-L 105; first compound 0.5 µM) was 0.359, the relative viability (EKVX; first compound 0.005 µM) was 0.731 and the relative viability (EKVX; first compound 0.01581 µM) was 0.853. For the same compound, the relative viability (EKVX; first compound 0.05 µM) was 0.945, the relative viability (EKVX; first compound 0.1581 µM) was 0.585 and the relative viability (EKVX; first compound 0.5 µM) was 0.242. For the same compound, the relative viability (EMC-BAC-2; first compound 0.005 µM) was 0.695, the relative viability (EMC-BAC-2; first compound 0.01581 µM) was 0.751 and the relative viability (EMC-BAC-2; first compound 0.05 µM) was 0.688. The relative viability (EMC-BAC-2; first compound 0.1581 µM) was 0.295, the relative viability (EMC-BAC-2; first compound 0.5 µM) was 0.247 and the relative viability (H3255; first compound 0.005 µM) was 0.945. The relative viability (H3255; first compound 0.01581 µM) was 0.885, the relative viability (H3255; first compound 0.05 µM) was 0.808 and the relative viability (H3255; first compound 0.1581 µM) was 0.784. For the same compound, the relative viability (H3255; first compound 0.5 µM) was 0.674, the relative viability (HCC-366; first compound 0.005 µM) was 0.725 and the relative viability (HCC-366; first compound 0.01581 µM) was 0.393. The relative viability (HCC-366; first compound 0.05 µM) was 0.178, the relative viability (HCC-366; first compound 0.1581 µM) was 0.0468 and the relative viability (HCC-366; first compound 0.5 µM) was 0.0253. For the same compound, the relative viability (LK-2; first compound 0.005 µM) was 0.494, the relative viability (LK-2; first compound 0.01581 µM) was 0.58 and the relative viability (LK-2; first compound 0.05 µM) was 0.247. The relative viability (LK-2; first compound 0.1581 µM) was 0.215, the relative viability (LK-2; first compound 0.5 µM) was 0.162 and the relative viability (LOU-NH91; first compound 0.005 µM) was 0.996. It also gave a relative viability (LOU-NH91; first compound 0.01581 µM) of 0.904, a relative viability (LOU-NH91; first compound 0.05 µM) of 0.82 and a relative viability (LOU-NH91; first compound 0.1581 µM) of 0.54. For the same compound, the relative viability (LOU-NH91; first compound 0.5 µM) was 0.566, the relative viability (NCI-H1563; first compound 0.005 µM) was 1.14 and the relative viability (NCI-H1563; first compound 0.01581 µM) was 1.3. For the same compound, the relative viability (NCI-H1563; first compound 0.05 µM) was 1.04, the relative viability (NCI-H1563; first compound 0.1581 µM) was 1 and the relative viability (NCI-H1563; first compound 0.5 µM) was 0.769. It also gave a relative viability (NCI-H1666; first compound 0.005 µM) of 0.774, a relative viability (NCI-H1666; first compound 0.01581 µM) of 0.876 and a relative viability (NCI-H1666; first compound 0.05 µM) of 0.703. It also gave a relative viability (NCI-H1666; first compound 0.1581 µM) of 0.344, a relative viability (NCI-H1666; first compound 0.5 µM) of 0.305 and a relative viability (NCI-H1734; first compound 0.005 µM) of 0.512. The relative viability (NCI-H1734; first compound 0.01581 µM) was 0.328, the relative viability (NCI-H1734; first compound 0.05 µM) was 0.257 and the relative viability (NCI-H1734; first compound 0.1581 µM) was 0.141. It also gave a relative viability (NCI-H1734; first compound 0.5 µM) of 0.128, a relative viability (NCI-H1755; first compound 0.005 µM) of 0.936 and a relative viability (NCI-H1755; first compound 0.01581 µM) of 0.873. The relative viability (NCI-H1755; first compound 0.05 µM) was 0.858, the relative viability (NCI-H1755; first compound 0.1581 µM) was 0.31 and the relative viability (NCI-H1755; first compound 0.5 µM) was 0.271. For the same compound, the relative viability (NCI-H1975; first compound 0.005 µM) was 0.97, the relative viability (NCI-H1975; first compound 0.01581 µM) was 1.08 and the relative viability (NCI-H1975; first compound 0.05 µM) was 0.973. For the same compound, the relative viability (NCI-H1975; first compound 0.1581 µM) was 0.764, the relative viability (NCI-H1975; first compound 0.5 µM) was 0.356 and the relative viability (NCI-H23; first compound 0.005 µM) was 0.544. For the same compound, the relative viability (NCI-H23; first compound 0.01581 µM) was 0.417, the relative viability (NCI-H23; first compound 0.05 µM) was 0.294 and the relative viability (NCI-H23; first compound 0.1581 µM) was 0.157. The relative viability (NCI-H23; first compound 0.5 µM) was 0.14, the relative viability (NCI-H441; first compound 0.005 µM) was 0.467 and the relative viability (NCI-H441; first compound 0.01581 µM) was 0.476. For the same compound, the relative viability (NCI-H441; first compound 0.05 µM) was 0.406, the relative viability (NCI-H441; first compound 0.1581 µM) was 0.232 and the relative viability (NCI-H441; first compound 0.5 µM) was 0.122. It also gave a relative viability (NCI-H520; first compound 0.005 µM) of 0.556, a relative viability (NCI-H520; first compound 0.01581 µM) of 1.09 and a relative viability (NCI-H520; first compound 0.05 µM) of 0.952. For the same compound, the relative viability (NCI-H520; first compound 0.1581 µM) was 0.751, the relative viability (NCI-H520; first compound 0.5 µM) was 0.752 and the relative viability (NCI-H596; first compound 0.005 µM) was 1.03. For the same compound, the relative viability (NCI-H596; first compound 0.01581 µM) was 0.857, the relative viability (NCI-H596; first compound 0.05 µM) was 0.763 and the relative viability (NCI-H596; first compound 0.1581 µM) was 0.658. The relative viability (NCI-H596; first compound 0.5 µM) was 0.628, the relative viability (PC-3 [JPC-3]; first compound 0.005 µM) was 0.889 and the relative viability (PC-3 [JPC-3]; first compound 0.01581 µM) was 0.903. The relative viability (PC-3 [JPC-3]; first compound 0.05 µM) was 0.866, the relative viability (PC-3 [JPC-3]; first compound 0.1581 µM) was 0.691 and the relative viability (PC-3 [JPC-3]; first compound 0.5 µM) was 0.65. For the same compound, the relative viability (SK-MES-1; first compound 0.005 µM) was 0.905, the relative viability (SK-MES-1; first compound 0.01581 µM) was 0.82 and the relative viability (SK-MES-1; first compound 0.05 µM) was 0.368. It also gave a relative viability (SK-MES-1; first compound 0.1581 µM) of 0.252 and a relative viability (SK-MES-1; first compound 0.5 µM) of 0.255.
